Test results from PMC5829263, “Homoarginine and inhibition of human arginase activity: kinetic characterization and biological relevance” (Scientific Reports, 2018).
Values joined by “and” are separate entries in the source; they are usually repeats but may differ in a detail not shown here. Equal values may be shown once. “Also recorded” adds a separate entry of the source.

Legend:
arginase 1 [1] = conditions: arginase 1 inhibition; ref Ikemoto et al. 12; cited from earlier work
arginase 1 [2] = assay: HOMOARG as a substrate for arginase 1, formation of LYS by UPLC-MS; format: biochemical, human; conditions: LYS limit of detection 0.3 µM
arginase 2 [3] = conditions: arginase 2 inhibition; ref Colleluori and Ash 17; cited from earlier work
[4] = target: T1, recombinant human arginase 2 (Homo sapiens, UniProt P78540); assay: Arginase 2 inhibition, UPLC-MS measurement of ARG to ORN conversion in HEK293T cell lysate; conditions: for % of control activity at the corresponding [Inhibitor] ± SE: mean of two experiments;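 on all read-outs here: HEK293T lysate carrying arginase 2 at 0.1 mg/mL in 0.05 M phosphate buffer pH 7.4, inhibitor preincubated with enzyme 5 min before ARG addition started the reaction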
T1 sequence (P78540 23-354): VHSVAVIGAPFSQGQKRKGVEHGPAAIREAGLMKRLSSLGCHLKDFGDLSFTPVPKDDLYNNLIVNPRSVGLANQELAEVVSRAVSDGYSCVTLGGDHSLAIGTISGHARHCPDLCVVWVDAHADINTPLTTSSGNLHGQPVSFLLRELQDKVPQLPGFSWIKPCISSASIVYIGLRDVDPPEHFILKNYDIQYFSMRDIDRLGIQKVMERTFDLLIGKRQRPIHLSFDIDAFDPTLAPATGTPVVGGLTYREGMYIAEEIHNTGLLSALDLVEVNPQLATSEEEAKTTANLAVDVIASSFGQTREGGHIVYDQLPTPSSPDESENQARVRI

arginase 2 [5] = assay: HOMOARG as a substrate for arginase 2, formation of LYS by UPLC-MS; format: biochemical, human; conditions: LYS limit of detection 0.3 µM
[6] = target: T2, recombinant human arginase 1 (Homo sapiens, UniProt P05089); assay: Arginase 1 inhibition, UPLC-MS measurement of ARG to ORN conversion in HEK293T cell lysate; conditions: for % of control activity at the corresponding [Inhibitor] ± SE: mean of two experiments;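 on all read-outs here: arginase 1–expressing HEK293T lysate at 0.05 mg/mL in pH 7.4 phosphate buffer, inhibitor preincubated 5 min with enzyme, then reaction started by adding ARG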
T2 sequence (P05089 1-322): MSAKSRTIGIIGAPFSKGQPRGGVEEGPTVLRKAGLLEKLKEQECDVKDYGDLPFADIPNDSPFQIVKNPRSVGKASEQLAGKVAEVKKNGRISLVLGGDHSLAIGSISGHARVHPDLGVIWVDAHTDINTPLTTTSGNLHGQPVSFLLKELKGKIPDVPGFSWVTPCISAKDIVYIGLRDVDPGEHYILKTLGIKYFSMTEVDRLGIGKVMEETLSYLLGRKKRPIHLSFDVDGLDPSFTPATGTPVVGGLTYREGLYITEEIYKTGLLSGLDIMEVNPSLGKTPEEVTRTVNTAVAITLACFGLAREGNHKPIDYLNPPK

## N=C(N)NCCCC[C@H](N)C(=O)O [HOMOARG, homoarginine]
Arginase 1 [1]
  Ki: 5 to 5.2 mM
Arginase 1 [2]
  substrate activity, formation of LYS from HOMOARG: could not detect; also recorded: not a substrate
Arginase 2 [3]
  Ki: 39 mM
[4]; ARG 100 µM, inhibitor 1 mM
  inhibition of arginase 2: 47%
[4]; ARG 100 µM, inhibitor 10 mM
  inhibition of arginase 2: 88%
[4]; arginase 2, ARG 100 µM, inhibitor 1 µM
  % of control activity at the corresponding [Inhibitor] ± SE: 107 ± 2%
[4]; arginase 2, ARG 100 µM, inhibitor 10 µM
  % of control activity at the corresponding [Inhibitor] ± SE: 105 ± 5%
[4]; arginase 2, ARG 100 µM, inhibitor 100 µM
  % of control activity at the corresponding [Inhibitor] ± SE: 100 ± 5%
[4]; arginase 2, ARG 100 µM, inhibitor 1,000 µM
  % of control activity at the corresponding [Inhibitor] ± SE: 53 ± 4%
[4]; arginase 2, ARG 100 µM, inhibitor 10,000 µM
  % of control activity at the corresponding [Inhibitor] ± SE: 12 ± 5%
[4]; arginase 2, ARG 2 mM, inhibitor 1 µM
  % of control activity at the corresponding [Inhibitor] ± SE: 95 ± 3%
[4]; arginase 2, ARG 2 mM, inhibitor 10 µM
  % of control activity at the corresponding [Inhibitor] ± SE: 106 ± 2%
[4]; arginase 2, ARG 2 mM, inhibitor 100 µM
  % of control activity at the corresponding [Inhibitor] ± SE: 94 ± 2%
[4]; arginase 2, ARG 2 mM, inhibitor 1,000 µM
  % of control activity at the corresponding [Inhibitor] ± SE: 72 ± 1%
[4]; arginase 2, ARG 2 mM, inhibitor 10,000 µM
  % of control activity at the corresponding [Inhibitor] ± SE: 15 ± 8%
[4]; arginase 2, physiological HOMOARG concentrations (1–10 µM)
  activity retained vs. control: 90%
[4]; arginase 2, poorly fit by uncompetitive, noncompetitive and mixed models
  inhibition model fitting the data: competitive
[4]; physiological LYS and HOMOARG concentrations
  inhibition of arginase 2 at physiological inhibitor concentrations: no significant inhibition
[4]; read-out: IC50 ( ± SE), arginase 2, ARG 2 mM
  IC50: 2.5 mM and 2.52 mM
[4]; read-out: Ki ( ± SE), arginase 2, competitive inhibition model, ARG 0.5–8 mM
  Ki: 1.7 mM and 1.73 mM
Arginase 2 [5]
  substrate activity, formation of LYS from HOMOARG: could not detect; also recorded: not a substrate
[6]; ARG 100 µM (physiological), inhibitor 1 mM
  inhibition of arginase 1 activity: 30%
[6]; ARG 100 µM (physiological), inhibitor 10 mM
  inhibition of arginase 1 activity: 76%
[6]; ARG 3 mM (Km), inhibitor 1 mM
  inhibition of arginase 1 activity: 14%
[6]; ARG 3 mM (Km), inhibitor 10 mM
  inhibition of arginase 1 activity: 50%
[6]; LYS 100–1000 µM, HOMOARG 1–10 µM
  inhibitory effect on arginase 1 activity at physiological inhibitor concentrations: no significant inhibitory effects
[6]; arginase 1, ARG 100 µM, inhibitor 1 µM
  % of control activity at the corresponding [Inhibitor] ± SE: 112 ± 4%
[6]; arginase 1, ARG 100 µM, inhibitor 10 µM
  % of control activity at the corresponding [Inhibitor] ± SE: 107 ± 4%
[6]; arginase 1, ARG 100 µM, inhibitor 100 µM
  % of control activity at the corresponding [Inhibitor] ± SE: 85 ± 1%
[6]; arginase 1, ARG 100 µM, inhibitor 1,000 µM
  % of control activity at the corresponding [Inhibitor] ± SE: 70 ± 1%
[6]; arginase 1, ARG 100 µM, inhibitor 10,000 µM
  % of control activity at the corresponding [Inhibitor] ± SE: 24 ± 8%
[6]; arginase 1, ARG 3 mM, inhibitor 1 µM
  % of control activity at the corresponding [Inhibitor] ± SE: 106 ± 7%
[6]; arginase 1, ARG 3 mM, inhibitor 10 µM
  % of control activity at the corresponding [Inhibitor] ± SE: 110 ± 1%
[6]; arginase 1, ARG 3 mM, inhibitor 100 µM
  % of control activity at the corresponding [Inhibitor] ± SE: 96 ± 6%
[6]; arginase 1, ARG 3 mM, inhibitor 1,000 µM
  % of control activity at the corresponding [Inhibitor] ± SE: 86 ± 13%
[6]; arginase 1, ARG 3 mM, inhibitor 10,000 µM
  % of control activity at the corresponding [Inhibitor] ± SE: 50 ± 1%
[6]; arginase 1, physiological HOMOARG concentrations (1–10 µM)
  activity retained vs. control: 90%
[6]; arginase 1, poorly fit by uncompetitive, noncompetitive and mixed models
  inhibition model fitting the data: competitive
[6]; read-out: IC50 ( ± SE), arginase 1, ARG 3 mM
  IC50: 8.14 ± 0.52 mM
[6]; read-out: Ki ( ± SE), arginase 1, competitive inhibition model, ARG 0.6–15 mM
  Ki: 6.1 ± 0.5 mM
